{"source": "patent US20260284422A1", "about": "“BRAIN TUMOR TREATMENT OR PREVENTION OF RECURRENCE WITH LOW INTENSITY AND VARIABLE FREQUENCY MAGNETIC STIMULATION” (ACTIPULSE NEUROSCIENCE INC., priority 2023, published 2026)", "assay": "Evans Blue dye uptake into brain (BBB permeability) in mice given rTMS or sham", "type": "in vivo, wild-type C57BL/6 mice", "text": "An in vivo mouse model was used to evaluate the use of rTMS to open the BBB. Ten wild-type C57BL/6 mice where anesthetized and received an intravenous (IV) injection of a 2% Evans Blue dye (in a vehicle of 0.9% NaCl). Evans Blue dye (also referred to as EBD or T-1824) is a non-toxic, azo-based injectable dye that presents visually with a dark blue/brown color. The dye has an affinity for serum albumin and is generally used to assess the permeability of the BBB in vivo. Most tissues will present darker, but neural tissue generally remains unstained. Mice injected with Evans Blue dye were then administered rTMS or a sham treatment and a histological analysis of the brain was performed to evaluate changes in permeability of the BBB. rTMS was administered according to Table 1.\nThe dye was administered as 100 μL 2% Evans blue (in 0.9% NaCl) via retro orbital injection. Mice were then administered rTMS or a sham (no magnetic field), e.g., as shown in the method overview depicted in FIGS. 2 and 3 for either 1 hr. or 30 min. Mice were euthanized, perfused with 10 mL PBS to expel blood from the organs, and analyzed for the presence of hemorrhage and lesion, e.g., as shown in the representative imaging in FIG. 3. Mice presented as lacking hemorrhage, lesion, or any signs of tissue damage.\nBrains were then submerged in 20% sucrose for 2 hr. and embedded in optimal cutting temperature compound (OCT compound) and frozen. The brain was then sectioned at 16 μm thickness, rinsed with PBS, and mounted for scanning at 40× magnification. Section imaging was performed using a digital slide scanner.\nAn imaging software was used to evaluate the pixelate density and area of staining in brain sections for calculating a comparison of Evans Blue dye uptake into the brain tissue.", "data": [{"smiles": "Cc1cc(-c2ccc(/N=N/c3ccc4c(S(=O)(=O)O)cc(S(=O)(=O)O)c(N)c4c3O)c(C)c2)ccc1/N=N/c1ccc2c(S(=O)(=O)O)cc(S(=O)(=O)O)c(N)c2c1O", "note": "[Evans Blue, Evans Blue dye]", "values": [{"measurement": "Mean area of brain section stained with Evans Blue, rTMS group", "setting": "100 μL 2% Evans blue retro-orbital, then rTMS, 16 μm brain sections, n=4", "value": 11.12, "unit": "mm^2"}, {"measurement": "Mean area of brain section stained with Evans Blue, sham group", "setting": "100 μL 2% Evans blue retro-orbital, then sham (no magnetic field), 16 μm brain sections, n=4", "value": 5.665, "unit": "mm^2"}, {"measurement": "Difference between means ± SEM of stained area (rTMS vs sham)", "setting": "unpaired t-test, P 0.004, n=4 per group", "value": "5.456 ± 1.209", "unit": "mm^2"}]}]}
